In patent publication US7476670B2, “Purine derivatives, method for preparing, pharmaceutical compositions and novel use” (Aventis Pharma S.A., priority 2003, dated 2009):

Experiments:
Assay type in all cases: biochemical
JNK3 kinase = JNK3 kinase (Homo sapiens, UniProt P53779); assay: Assay for inhibition of JNK3 activity; conditions: fluorescence polarization, ATP 6 μM; read-out: IC50s expressed as micromolar
Experimental: The inhibition of the kinase activity is determined by fluorescence polarization, the JNK3 kinase phosphorylates a peptide detected by adding an anti-phosphopeptide antibody coupled to a fluorescent label.
The assay is carried out in a final volume of 30 μl; all the reagents are prepared in a buffer: • 50 mM HEPES pH 7.5 • 0.03% triton X100 • 10 mM MgCl2 • 5% Glycerol • 1 mM DTT 10 μl of the 10-times concentrated inhibitor are added to 5 μl of enzyme (40 ng final concentration), and 5 μl of incubation buffer containing 100 ng of substrate and 10 μl of ATP (6 μM final concentration) are added.

[1] = biological target: Cyclin Dependent kinase 2 (CDK2) (Homo sapiens, UniProt P24941); assay: Assay for inhibition of CDK2 activity; conditions: [33P]ATP, read-out: percentage inhibition at 20 μM
Experimental: The inhibition of the kinase activity of Cyclin Dependent kinase 2 (CDK2) is determined by measuring the phosphorylation of its substrate peptide.
The assay is carried out in a final volume of 50 μl.
The incubation buffer as follows:
• 50 mM Hepes/NaOH pH 7.5 • 10 mM MgCl2 • 1 mM DTT 5 μl of the 10-times concentrated inhibitor are added to 25 μl of incubation buffer containing 0.8 U/μL final concentration of the enzyme; 10 μL of incubation buffer containing 0.0025 mg/ml of peptide substrate are then added and, finally, 10 μL of incubation buffer containing 2 mM ATP and radiolabeled ATP, [^33P]ATP (0.25 μCi), are added. The reaction is stopped after incubation for 10 minutes at 37° C. • Results obtained expressed as percentage inhibition at 20 μM • Example 2 97% • Example 27 97% • Example 30 99% 4) Assay for Inhibition of CDK1 Activity

GSK3beta = GSK3beta (Homo sapiens, UniProt P49841); assay: Assay for inhibition of GSK3beta activity; conditions: [33P]ATP; read-out: IC50s expressed as micromolar
Experimental: The inhibition of the kinase activity is determined by measuring the phosphorylation of its substrate peptide.
The assay is carried out in a final volume of 40 μl; all the reagents are prepared in a buffer: • 50 mM HEPES pH 7.5 • 0.03% triton X100 • 10 mM MgCl2 • 5% Glycerol • 1 mM DTT 10 μl of the 10-times concentrated inhibitor are added to 5 μl of enzyme (20 ng final concentration), and 5 μl of peptide (1 μM final concentration) then 2.5 μof incubation buffer containing 16 μM ATP and 2.5 μl of radiolabeled ATP, [^33P]ATP (50 nCi) are added. After incubation for 15 minutes at ambient temperature, 10 μl of incubation buffer containing 1 μM of substrate.

Chain of JNK3 kinase (P53779 whole entry): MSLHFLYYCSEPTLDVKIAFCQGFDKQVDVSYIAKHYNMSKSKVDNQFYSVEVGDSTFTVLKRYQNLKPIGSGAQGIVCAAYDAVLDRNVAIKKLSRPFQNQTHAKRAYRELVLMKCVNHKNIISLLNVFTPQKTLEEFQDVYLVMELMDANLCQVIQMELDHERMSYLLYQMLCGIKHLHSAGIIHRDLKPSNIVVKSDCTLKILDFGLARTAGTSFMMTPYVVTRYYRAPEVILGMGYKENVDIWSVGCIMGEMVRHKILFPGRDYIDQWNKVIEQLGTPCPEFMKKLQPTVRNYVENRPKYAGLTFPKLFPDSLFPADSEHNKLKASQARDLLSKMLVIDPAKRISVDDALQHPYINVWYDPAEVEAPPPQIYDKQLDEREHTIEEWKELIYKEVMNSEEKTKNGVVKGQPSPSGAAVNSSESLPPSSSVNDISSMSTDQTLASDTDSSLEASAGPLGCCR
Chain of GSK3beta (P49841 whole entry, species assumed): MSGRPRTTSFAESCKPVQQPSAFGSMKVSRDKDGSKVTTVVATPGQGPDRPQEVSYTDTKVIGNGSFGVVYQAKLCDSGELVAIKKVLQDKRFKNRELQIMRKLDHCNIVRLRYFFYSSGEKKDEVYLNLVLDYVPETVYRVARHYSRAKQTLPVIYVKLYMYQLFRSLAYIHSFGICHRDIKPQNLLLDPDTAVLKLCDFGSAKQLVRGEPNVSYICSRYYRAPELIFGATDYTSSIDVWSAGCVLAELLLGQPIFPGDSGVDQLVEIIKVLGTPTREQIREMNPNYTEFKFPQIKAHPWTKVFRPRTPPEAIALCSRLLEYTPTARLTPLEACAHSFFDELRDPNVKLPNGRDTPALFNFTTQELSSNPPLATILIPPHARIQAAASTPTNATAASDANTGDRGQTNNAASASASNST

SMILES | IC50 (JNK3 kinase) | inhibition at 20 µM [1] | IC50 (GSK3beta)
Cl.N[C@H]1CC[C@H](Nc2nc(-n3cnc4cc(Cl)c(Cl)cc43)c3nc[nH]c3n2)CC1 [Example 8, Trans-N-[6-(5,6-dichloro-1H-benzimidazol-1-yl)-9H-purin-2-yl]-1,4-cyclohexanediamine hydrochloride] | 0.84 µM | – | –
Cl.Cl.N[C@H]1CC[C@H](Nc2nc(N3CCc4cc([N+](=O)[O-])ccc43)c3nc[nH]c3n2)CC1 [Example 30, Trans-N-[6-(2,3-dihydro-5-nitro-1H-indol-1-yl)-9H-purin-2-yl]-1,4-cyclohexanediamine dihydrochloride] | – | 99% | 1.5 µM
